Data taken from ChEMBL document CHEMBL4619704, “Structural determinants of affinity and selectivity in the binding of inhibitors to histone deacetylase 6” (Bioorg Med Chem Lett, 2020).

Tests used:
[1] = molecular target: T1, Histone deacetylase 1 (Homo sapiens, UniProt Q13547); assay: Inhibition of C-terminal Flag-tagged HDAC1 (unknown origin) expressed in HEK293 cells or Sf21 cells using Ac-NH-GGK(Ac)-AMC peptide as substrate measured after 180 mins by fluorescence based assay
[2] = molecular target: T1, Histone deacetylase 1; assay: Inhibition of C-terminal Flag-tagged HDAC1 (unknown origin) expressed in HEK293 cells or Sf21 cells using Ac-RHK(Ac)K(Ac)-AMC peptide as substrate measured after 180 mins by fluorescence based assay
[3] = molecular target: T2, Protein deacetylase HDAC6 (Homo sapiens, UniProt Q9UBN7); assay: Inhibition of human HDAC6 (unknown origin)
T2 sequence (Q9UBN7 whole entry): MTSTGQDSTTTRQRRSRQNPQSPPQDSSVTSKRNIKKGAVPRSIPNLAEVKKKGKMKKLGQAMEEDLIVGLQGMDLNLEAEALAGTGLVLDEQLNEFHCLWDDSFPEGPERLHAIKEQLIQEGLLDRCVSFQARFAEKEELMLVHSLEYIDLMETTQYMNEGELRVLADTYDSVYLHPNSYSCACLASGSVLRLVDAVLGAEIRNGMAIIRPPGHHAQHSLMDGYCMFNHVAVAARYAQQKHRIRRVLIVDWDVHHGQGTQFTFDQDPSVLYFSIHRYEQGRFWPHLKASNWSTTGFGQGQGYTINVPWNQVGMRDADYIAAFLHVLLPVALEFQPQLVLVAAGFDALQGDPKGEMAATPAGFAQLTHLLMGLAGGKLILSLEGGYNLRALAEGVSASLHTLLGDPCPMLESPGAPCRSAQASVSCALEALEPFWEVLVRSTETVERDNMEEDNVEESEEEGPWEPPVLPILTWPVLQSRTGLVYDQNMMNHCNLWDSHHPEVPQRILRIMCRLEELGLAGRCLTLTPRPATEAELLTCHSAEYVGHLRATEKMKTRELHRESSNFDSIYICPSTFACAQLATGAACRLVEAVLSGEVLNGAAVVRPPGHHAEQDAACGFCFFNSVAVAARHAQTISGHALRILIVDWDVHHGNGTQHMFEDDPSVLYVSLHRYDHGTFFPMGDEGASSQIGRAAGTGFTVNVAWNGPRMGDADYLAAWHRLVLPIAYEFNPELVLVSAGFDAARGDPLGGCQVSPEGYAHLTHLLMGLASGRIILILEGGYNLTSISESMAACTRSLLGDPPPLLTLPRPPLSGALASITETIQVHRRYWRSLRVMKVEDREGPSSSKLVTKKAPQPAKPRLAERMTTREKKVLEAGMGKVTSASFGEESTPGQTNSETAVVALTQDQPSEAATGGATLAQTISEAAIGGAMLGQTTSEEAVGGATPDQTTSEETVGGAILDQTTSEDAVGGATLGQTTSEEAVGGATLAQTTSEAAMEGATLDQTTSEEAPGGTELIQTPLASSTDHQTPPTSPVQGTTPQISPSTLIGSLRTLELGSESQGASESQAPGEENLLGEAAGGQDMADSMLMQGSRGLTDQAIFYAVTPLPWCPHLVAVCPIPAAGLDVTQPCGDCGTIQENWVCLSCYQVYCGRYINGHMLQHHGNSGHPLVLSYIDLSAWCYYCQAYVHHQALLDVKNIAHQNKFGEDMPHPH

[4] = molecular target: T1, Histone deacetylase 1; assay: Inhibition of HDAC1 (unknown origin)
[5] = molecular target: T2, Protein deacetylase HDAC6; assay: Inhibition of HDAC6 (unknown origin) using acetyl-lysine tripeptide as substrate preincubated for 24 hrs followed by substrate addition and measured after 30 mins by microtiter plate reader analysis

T1 sequence (Q13547 whole entry): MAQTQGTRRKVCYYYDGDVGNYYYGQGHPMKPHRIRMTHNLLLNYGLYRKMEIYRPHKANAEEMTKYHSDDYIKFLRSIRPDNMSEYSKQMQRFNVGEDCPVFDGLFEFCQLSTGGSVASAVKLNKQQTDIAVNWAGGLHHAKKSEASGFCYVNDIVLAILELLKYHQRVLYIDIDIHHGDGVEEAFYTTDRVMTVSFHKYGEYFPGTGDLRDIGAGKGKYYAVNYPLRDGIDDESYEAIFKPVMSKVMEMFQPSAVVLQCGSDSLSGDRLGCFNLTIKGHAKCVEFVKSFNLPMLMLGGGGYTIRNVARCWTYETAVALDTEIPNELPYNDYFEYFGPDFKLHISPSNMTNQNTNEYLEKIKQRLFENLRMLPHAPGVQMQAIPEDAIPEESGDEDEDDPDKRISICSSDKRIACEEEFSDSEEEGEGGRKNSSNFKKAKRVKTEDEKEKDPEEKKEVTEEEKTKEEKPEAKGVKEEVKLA

CN(C)Cc1ccc(S(=O)(=O)n2ccc(/C=C/C(=O)NO)c2)cc1 [RESMINOSTAT]
IC50 [1]: 43 nM
IC50 [2]: 877 nM

NCCCNCCCCCC(=O)C(F)(F)F
IC50 [3]: 1400 nM

O=C(NO)c1cnc(NC2(c3ccccc3)CCC(F)(F)CC2)nc1
IC50 [4]: 780 nM
IC50 [5]: 3 nM
